According to patent publication US5284853A, “Angiotensin II receptor blocking 2,3,6 substituted quinazolinones” (American Cyanamid Company, priority 1993, dated 1994):
Where “and” joins values, the source holds several entries; their conditions need not be identical. Equal values may be shown once.

Legend:
[1] = test system: Angiotensin II (AII) vasopressor response; assay: AII Challenge: antagonism of the angiotensin II vasopressor response in conscious SHR; assay type: in vivo, Spontaneously hypertensive rats (Male okamoto-Aoki SHR); settings: 15 mg/kg I.V.; for Average Change / Inhibition: n = 2; for Change / Control Before AII / Response After AII: per rat
Text: […] Conscious Male okamoto-Aoki SHR, 16-20 weeks old, weighing approximately 330 g are purchased from Charles River Labs (Wilmington, MA). Conscious rats are restrained in a supine position with elastic tape. The area at the base of the tail is locally anesthetized by subcutaneous infiltration with 2% procaine. […] The cannula is secured, heparinized (1,000 I.U./ml), sealed and the wound is closed. The animals are placed in plastic restraining cages in an upright position. The cannula is attached to a Statham P23Db pressure transducer, and pulsatile blood pressure is recorded to 10-15 minutes with a Gould Brush recorder. (Chan et al., (Drug Development Res., 18:75-94, 1989). […] Co., St. […] […] […] […] […] A compound is considered active if at 30 mg/kg i.v. it antagonized at least 50% of the response.

Angiotensin II Receptor = molecular target: T1, Angiotensin II Receptor (Bos taurus, UniProt P25104); assay: Receptor binding assay: competition of [^125 I](Sar^1,Ile^8)AngII binding to beef adrenal cortex microsomal membranes; settings: 60 min, room temperature, pH 7.4
T1 construct: The brownish tissue forming the adrenal cortex is scraped off and finely minced with scissors before homogenization; tissue local slaughter house (Maxwell-Cohen); host or cells: beef adrenal cortex, microsomal membranes (100,000×g pellet)
T1 sequence (P25104 1-359): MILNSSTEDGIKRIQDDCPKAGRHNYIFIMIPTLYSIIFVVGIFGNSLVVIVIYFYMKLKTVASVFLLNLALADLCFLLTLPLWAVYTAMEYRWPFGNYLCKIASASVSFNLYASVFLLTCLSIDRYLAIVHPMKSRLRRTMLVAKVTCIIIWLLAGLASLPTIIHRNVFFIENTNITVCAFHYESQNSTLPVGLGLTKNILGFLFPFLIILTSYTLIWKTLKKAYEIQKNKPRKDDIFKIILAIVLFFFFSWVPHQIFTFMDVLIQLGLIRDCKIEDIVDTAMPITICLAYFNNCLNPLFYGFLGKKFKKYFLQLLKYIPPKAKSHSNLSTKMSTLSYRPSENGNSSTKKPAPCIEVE
Text: Beef adrenals are obtained from a local slaughter house (Maxwell-Cohen). [^125 […]. 2200 Ci/mmole, is purchased from Dupont (KEN@, Boston, Mass.). All unlabeled AngII analogs, Dimethylsulfoxide (DMSO), nucleotides, bovine serum albumin (BBA) are purchased from Sigma Chemical Co., St. Louis, MO U.S.A. Approximately sixteen (16) to twenty (20) beef adrenal glands are processed as follows: fresh adrenal glands received on crushed ice are cleaned of fatty tissues and the tough membranes encapsulating the glands are removed and discarded. The brownish tissue forming the adrenal cortex is scraped off and finely minced with scissors before homogenization care is taken to avoid contamination with medullary tissue during dissection. […] Unless otherwise indicated, all subsequent operations are done at […]. […] The homogenate is centrifuged first at low speed (3,000×g) for 10 min. […] This P2 pellet is discarded and the liquid phase is carefully decanted off in clean centrifuge tubes and recentrifuged at high speed (100,000×g) for 60 min. The translucent final pellet is harvested and combined in a small volume (20-50.0 ml) of […] Tris.HCl buffer, pH 7.2. A 100 ul aliquot is withdrawn and the protein content of the preparation is determined by the Lowry's method (Lowry, O. H., Rosebrough, N. P., Parr, A. L. and Randall, R. J., Protein measurement with Folin phenol reagent. J. Biol. Chem., […], 265-275, 1951). The pelleted membrane is reconstituted in 50.0 mM Tris.HCl buffer containing 0.1 mM of phenylmethylsulfonyl fluoride (PMSF) to give approximately a protein concentration of 2.5 mg per ml of tissue suspension. […] In competition studies, experimental compounds are diluted in dimethylsulfoxide (DMSO) and added in 20 ul to wells before the introduction of tissue membranes. This concentration of DMSO is found to have no negative effects on the binding of [^125 I] ([…] to the membranes. Assays are performed in triplicate. The wells are left undisturbed for 60 min. at room temperature. Following incubation, all wells are harvested at once with a Brandel® Harvester especially designed for a 96 well plate (Brandel® Biomedical Research & Development Labs. Inc., Gaithersburg, MD, U.S.A.). The filter discs are washed with 10×1.0 ml of cold 0.9% NaCl to remove unbound ligand. Presoaking the filter sheet in 0.1% polyethyleneimine in normal saline (PEI/Saline) greatly reduces the radioactivity retained by the filter blanks. This method is routinely used. The filters are removed from the filter grid and counted in a Parkard® Cobra Gamma Counter for 1 min. (Packard Instrument Co., Downers Grove, Ill, U.S.A.). The binding data are analyzed by the non-linear interactive "LUNDON-11" program (LUNDON SOFTWARE Inc., Cleveland, OH U.S.A.).

[2] = AII 0.05 mcg/kg IV, 30 min post dose
[3] = AII 0.05 mcg/kg IV, 60 min post dose
[4] = AII 0.05 mcg/kg IV, 90 min post dose
[5] = AII 0.05 mcg/kg IV, 120 min post dose
[6] = AII 0.05 mcg/kg IV, 180 min post dose
[7] = AII 0.1 mcg/kg IV, 30 min post dose
[8] = AII 0.1 mcg/kg IV, 60 min post dose
[9] = AII 0.1 mcg/kg IV, 90 min post dose
[10] = AII 0.1 mcg/kg IV, 120 min post dose
[11] = AII 0.1 mcg/kg IV, 180 min post dose

With `CCCCc1nc2ccc(C3CC(C(=O)O)=NO3)cc2c(=O)n1Cc1ccc(-c2ccccc2-c2nnn[nH]2)cc1` (stereo not drawn) [Example 28, 5-[2-butyl-3,4-dihydro-4-oxo-3-[[2'-(lH-tetrazol-5-yl)[1,1'-biphenyl]-4-yl]-methyl]-6-quinazolinyl]-4,5-dihydro-3-isoxazolecarboxylic acid] the “Average Change” value [1, 2] was 10 mmhg, the Inhibition [1, 2] was 75% and the Change [1, 2] was 10 mmhg. For the same molecule, the “Control Before AII” value [1, 2] was 185 mmhg and 167 mmhg, the “Response After AII” value [1, 2] was 195 mmhg and 177 mmhg and the “Average Change” value [1, 3] was 2.5 mmhg. For the same molecule, the Inhibition [1, 3] was 94%, the Change [1, 3] was 5 mmhg and 0 mmhg and the “Control Before AII” value [1, 3] was 170 mmhg and 165 mmhg. For the same molecule, the “Response After AII” value [1, 3] was 175 mmhg and 165 mmhg, the “Average Change” value [1, 4] was 10 mmhg and the Inhibition [1, 4] was 75%. For the same molecule, the Change [1, 4] was 10 mmhg, the “Control Before AII” value [1, 4] was 185 mmhg and the “Response After AII” value [1, 4] was 195 mmhg. For the same molecule, the “Average Change” value [1, 5] was 16 mmhg, the Inhibition [1, 5] was 60% and the Change [1, 5] was 22 mmhg and 10 mmhg. For the same molecule, the “Control Before AII” value [1, 5] was 163 mmhg and 165 mmhg, the “Response After AII” value [1, 5] was 185 mmhg and 175 mmhg and the “Average Change” value [1, 6] was 15.5 mmhg. For the same molecule, the Inhibition [1, 6] was 61%, the Change [1, 6] was 16 mmhg and 15 mmhg and the “Control Before AII” value [1, 6] was 170 mmhg. For the same molecule, the “Response After AII” value [1, 6] was 186 mmhg and 185 mmhg, the “Average Change” value [1, 7] was 4.5 mmhg and the Inhibition [1, 7] was 91%. The Change [1, 7] was 9 mmhg and 0 mmhg, the “Control Before AII” value [1, 7] was 190 mmhg and 165 mmhg and the “Response After AII” value [1, 7] was 199 mmhg and 165 mmhg. For the same molecule, the “Average Change” value [1, 8] was 14 mmhg, the Inhibition [1, 8] was 73% and the Change [1, 8] was 15 mmhg and 13 mmhg. For the same molecule, the “Control Before AII” value [1, 8] was 175 mmhg and 157 mmhg, the “Response After AII” value [1, 8] was 190 mmhg and 170 mmhg and the “Average Change” value [1, 9] was 10 mmhg. The Inhibition [1, 9] was 81%, the Change [1, 9] was 10 mmhg and the “Control Before AII” value [1, 9] was 185 mmhg and 175 mmhg. The “Response After AII” value [1, 9] was 195 mmhg and 185 mmhg, the “Average Change” value [1, 10] was 20 mmhg and the Inhibition [1, 10] was 62%. The Change [1, 10] was 20 mmhg, the “Control Before AII” value [1, 10] was 180 mmhg and 165 mmhg and the “Response After AII” value [1, 10] was 200 mmhg and 185 mmhg. The “Average Change” value [1, 11] was 24.5 mmhg, the Inhibition [1, 11] was 53% and the Change [1, 11] was 24 mmhg and 25 mmhg. For the same molecule, the “Control Before AII” value [1, 11] was 175 mmhg and 160 mmhg, the “Response After AII” value [1, 11] was 199 mmhg and 185 mmhg and the IC50 (Angiotensin II Receptor) was 600 nM.
